Results from patent US10106556B2, “Heterocyclic compound” (TAKEDA PHARMACEUTICAL COMPANY LIMITED, priority 2015, dated 2018).

Biological target: T1, His-hMAGL (recombinant polyhistidine tagged human MAGL protein) (Homo sapiens, UniProt Q99685)
T1 construct: made in house; host or cells: E. coli BL21(DE3)
T1 sequence (Q99685 1-303): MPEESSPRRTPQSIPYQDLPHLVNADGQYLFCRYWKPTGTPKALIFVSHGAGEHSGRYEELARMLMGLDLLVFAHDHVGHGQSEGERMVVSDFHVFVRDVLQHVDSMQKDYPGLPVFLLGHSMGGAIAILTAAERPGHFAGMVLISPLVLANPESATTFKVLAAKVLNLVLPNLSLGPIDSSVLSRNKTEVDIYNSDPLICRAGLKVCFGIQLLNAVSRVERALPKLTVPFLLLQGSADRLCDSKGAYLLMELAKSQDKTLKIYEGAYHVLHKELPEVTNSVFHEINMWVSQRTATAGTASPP
Test: Measurement of MAGL inhibitory activity (arachidonic acid production from 2-arachidonylglycerol, RapidFire-mass spectrometry)
Format: biochemical
Settings: MAGL inhibitory rate at 10 μM test compound, 60 min preincubation with His-hMAGL, 2-arachidonylglycerol substrate, 10 min reaction at room temperature
Procedure: Furthermore, acetonitrile (50 μL) containing 3 μM arachidonic acid-d8 (Cayman Chemical Company) was added and the mixture was stirred.
The amount of arachidonic acid in the obtained enzyme reaction mixture was calculated by measuring by RapidFire-mass spectrometry and correcting by the amount of arachidonic acid-d8. High Throughput online solid phase extraction was performed using RapidFire 300™ system (Agilent Technologies, Inc.). Samples were loaded on SPE C4 cartridge (Agilent Technologies, Inc.) and desalted with 0.2 (v/v) % acetic acid (Wako Pure Chemical Industries, Ltd.) in ultrapure water/acetonitrile (70/30, v/v) at a flow rate of 1.5 mL/min, eluted at a flow rate of 0.5 mL/min with 0.2 (v/v) % acetic acid dissolved in acetonitrile/ultrapure water (90/10, v/v), and injected into the mass spectrometry part. The injection needle was washed with ultrapure water (500 millisecond) and acetonitrile (500 millisecond) to minimize carry-over. […] The RapidFire300 system was controlled by RapidFire UI software version 3.6 (Agilent Technologies, Inc.).
The mass spectrometry of the resultant product was performed using API4000™ triple quadrupole mass spectrometer (AB SCIEX) equipped with an electrospray ion sauce (TurboIon Spray™) in a negative selected reaction monitoring (SRM) mode. The conditions of SRM are shown below. The parameters of the instrument were optimized as follows: capillary temperature 600° C., ion spray voltage −4.5 kV, collision gas 8, curtain gas 15 psi, ion source gas 1 60 psi, ion source gas 2 60 psi. The mass spectrometer was controlled by Analyst™ software version 1.5.1 (AB SCIEX). The peak area integration was analyzed using RapidFire integrator software version 3.6 (Agilent Technologies, Inc.).
MAGL inhibitory rate (%) was calculated according to the following calculation formula. (1−(arachidonic acid production amount of test compound addition group−arachidonic acid production amount of enzyme−free group)÷(arachidonic acid production amount of test compound-free group−arachidonic acid production amount of enzyme-free group))×100

| SMILES | inhibition at 10 µM [%] | % inhibition (10 μM) [%] |
| --- | --- | --- |
| COC(=O)c1ccc(OCC2CCN(C(=O)c3cc4c(cc3F)OCC(=O)N4)CC2)c(Cl)c1 [Example 84, methyl-3-chloro-4-((1-((7-fluoro-3-oxo-3,4-dihydro-2H-1,4-benzoxazin-6-yl)carbony)piperidin-4-yl)methoxy)benzoate] | 97 | – |
| O=C1COc2ncc(C(=O)N3CCC(COc4cc(Cl)ccc4Cl)CC3)cc2N1 [Example 18, 7-((4-((2,5-dichlorophenoxy)methyl)piperidin-1-yl)carbonyl)-1H-pyrido[2,3-b][1,4]oxazin-2(3H)-one] | 100 | – |
| N#Cc1cc(C(F)(F)F)ccc1OCC1CCN(C(=O)c2cc3c(cc2F)OCC(=O)N3)CC1 [Example 68, 2-((1-((7-fluoro-3-oxo-3,4-dihydro-2H-1,4-benzoxazin-6-yl)carbonyl)piperidin-4-yl)methoxy)-5-(trifluoromethyl)benzonitrile] | 96 | – |
| O=C1COc2cc(F)c(C(=O)N3CC(COc4cccc5[nH]ncc45)C3)cc2N1 [Example 107, 7-fluoro-6-((3-((1H-indazol-4-yloxy)methyl)azetidin-1-yl)carbonyl)-2H-1,4-benzoxazin-3(4H)-one] | 101 | – |
| O=C1COc2ncc(C(=O)N3CCC(COc4cc(F)ccc4Cl)CC3)cc2N1 [Example 21, 7-((4-((2-chloro-5-fluorophenoxy)methyl)piperidin-1-yl)carbonyl)-1H-pyrido[2,3-b][1,4]oxazin-2(3H)-one] | 99 | – |
| Cn1ccc(-c2cc(Cl)ccc2OCC2CN(C(=O)c3cc4c(cc3F)OCC(=O)N4)C2)n1 [Example 216, 6-((3-((4-chloro-2-(1-methyl-1H-pyrazol-3-yl)phenoxy)methyl)azetidin-1-yl)carbonyl)-7-fluoro-2H-1,4-benzoxazin-3(4H)-one] | 97 | – |
| O=C1COc2cc(Cl)c(C(=O)N3CC(COc4ccc(F)cc4Cl)C3)cc2N1 [Example 87, 7-chloro-6-((3-((2-chloro-4-fluorophenoxy)methyl)azetidin-1-yl)carbonyl)-2H-1,4-benzoxazin-3(4H)-one] | 102 | – |
| CC(Oc1cccc(F)c1F)C1CN(C(=O)c2cc3c(cc2F)OCC(=O)N3)C1 (stereo not shown) [Example 311, 6-((3-(1-(2,3-difluorophenoxy)ethyl)azetidin-1-yl)carbonyl)-7-fluoro-2H-1,4-benzoxazin-3(4H)-one] | – | 103 |
| CC(Oc1ccc(F)cc1F)C1CN(C(=O)c2cc3c(cc2F)OCC(=O)N3)C1 (stereo not shown) [Example 301, 6-((3-(1-(2,4-difluorophenoxy)ethyl)azetidin-1-yl)carbonyl)-7-fluoro-2H-1,4-benzoxazin-3(4H)-one] | – | 99 |
| O=C1COc2cc(F)c(C(=O)N3CC(COc4ccc5cccnc5c4)C3)cc2N1 [Example 171, 7-fluoro-6-((3-((quinolin-7-yloxy)methyl)azetidin-1-yl)carbonyl)-2H-1,4-benzoxazin-3(4H)-one] | 98 | – |
| Cc1ccc(OCC2CCN(C(=O)c3ccc4c(c3)NC(=O)CO4)CC2)c(C)n1 [Example 38, 6-((4-(((2,6-dimethylpyridin-3-yl)oxy)methyl)piperidin-1-yl)carbonyl)-2H-1,4-benzoxazin-3(4H)-one] | 84 | – |
| O=C1COc2cc(F)c(C(=O)N3CC(COc4ccc(Cl)cc4F)C3)cc2N1 [Example 126, 6-((3-((4-chloro-2-fluorophenoxy)methyl)azetidin-1-yl)carbonyl)-7-fluoro-2H-1,4-benzoxazin-3(4H)-one] | 102 | – |
| CC(Oc1ccc(F)cc1F)C1CN(C(=O)c2cc3c(cc2F)OCC(=O)N3)C1 (stereo not shown) [Example 300, 6-((3-(1-(2,4-difluorophenoxy)ethyl)azetidin-1-yl)carbonyl)-7-fluoro-2H-1,4-benzoxazin-3(4H)-one] | – | 102 |
| O=C1COc2cc(F)c(C(=O)N3CC(COc4ccc5nccn5c4-c4ccc(F)cc4)C3)cc2N1 [Example 181, 7-fluoro-6-((3-(((5-(4-fluorophenyl)imidazo[1,2-a]pyridin-6-yl)oxy)methyl)azetidin-1-yl)carbonyl)-2H-1,4-benzoxazin-3(4H)-one] | 99 | – |
| O=C1COc2cc(F)c(C(=O)N3CC(OCc4ccc5scnc5c4)C3)cc2N1 [Example 344, 6-((3-(1,3-benzothiazol-5-ylmethoxy)azetidin-1-yl)carbonyl)-7-fluoro-2H-1,4-benzoxazin-3(4H)-one] | 99 | – |
| O=C1COc2cc(F)c(C(=O)N3CC(COc4ccc(Cl)cc4-c4ccncc4F)C3)cc2N1 [Example 209, 6-((3-((4-chloro-2-(3-fluoropyridin-4-yl)phenoxy)methyl)azetidin-1-yl)carbonyl)-7-fluoro-2H-1,4-benzoxazin-3(4H)-one] | 101 | – |
| Cc1nc2c(OCC3CCN(C(=O)c4cc5c(cc4F)OCC(=O)N5)CC3)cccc2s1 [Example 187, 7-fluoro-6-((4-(((2-methyl-1,3-benzothiazol-4-yl)oxy)methyl)piperidin-1-yl)carbonyl)-2H-1,4-benzoxazin-3(4H)-one] | 98 | – |
| Cc1nc(F)ccc1-c1ccc(OCC2CN(C(=O)c3cc4c(cc3F)OCC(=O)N4)C2)c(F)c1 [Example 290, 7-fluoro-6-((3-((2-fluoro-4-(6-fluoro-2-methylpyridin-3-yl)phenoxy)methyl)azetidin-1-yl)carbonyl)-2H-1,4-benzoxazin-3(4H)-one] | 100 | – |
| Cc1c(-c2cc(Cl)ccc2OCC2CN(C(=O)c3cc4c(cc3F)OCC(=O)N4)C2)cnn1C [Example 266, 6-((3-((4-chloro-2-(1,5-dimethyl-1H-pyrazol-4-yl)phenoxy)methyl)azetidin-1-yl)carbonyl)-7-fluoro-2H-1,4-benzoxazin-3(4H)-one] | 99 | – |
| Cc1ccc(OCC2CCN(C(=O)c3ccc4c(c3)NC(=O)CO4)CC2)c(C)c1 [Example 35, 6-((4-((2,4-dimethylphenoxy)methyl)piperidin-1-yl)carbonyl)-2H-1,4-benzoxazin-3(4H)-one] | 98 | – |
| N#Cc1cc(C(F)(F)F)ccc1OCC1CCN(C(=O)c2ccc3c(c2)NC(=O)C3)CC1 [Example 69, 2-((1-((2-oxo-2,3-dihydro-1H-indol-6-yl)carbonyl)piperidin-4-yl)methoxy)-5-(trifluoromethyl)benzonitrile] | 99 | – |
| O=C1COc2cnc(C(=O)N3CCC(COc4ccc(C(F)(F)F)cc4Cl)CC3)cc2N1 [Example 144, 7-((4-((2-chloro-4-(trifluoromethyl)phenoxy)methyl)piperidin-1-yl)carbonyl)-1H-pyrido[3,4-b][1,4]oxazin-2(3H)-one] | 98 | – |
| Cc1ccnc(-c2ccc(OCC3CN(C(=O)c4cc5c(cc4F)OCC(=O)N5)C3)c(F)c2)c1 [Example 276] | 97 | – |
| Cc1cc(-c2ccc(OCC3CN(C(=O)c4cc5c(cc4F)OCC(=O)N5)C3)c(F)c2)nn1C [Example 253, 6-((3-((4-(1,5-dimethyl-1H-pyrazol-3-yl)-2-fluorophenoxy)methyl)azetidin-1-yl)carbonyl)-7-fluoro-2H-1,4-benzoxazin-3(4H)-one] | 102 | – |
| COCC(Oc1ccc(Cl)cc1F)C1CN(C(=O)c2cc3c(cc2F)OCC(=O)N3)C1 (stereo not shown) [Example 309, 6-((3-(1-(4-chloro-2-fluorophenoxy)-2-methoxyethyl)azetidin-1-yl)carbonyl)-7-fluoro-2H-1,4-benzoxazin-3(4H)-one] | 98 | – |
| O=C1COc2cc(F)c(C(=O)N3CCC(COc4cccc5ccnn45)CC3)cc2N1 [Example 275, 7-fluoro-6-((4-((pyrazolo[1,5-a]pyridin-7-yloxy)methyl)piperidin-1-yl)carbonyl)-2H-1,4-benzoxazin-3(4H)-one] | 99 | – |
| CC(OC1CN(C(=O)c2cc3c(cc2F)OCC(=O)N3)C1)c1ccc(F)cc1 (stereo not shown) [Example 354, 7-fluoro-6-((3-(1-(4-fluorophenyl)ethoxy)azetidin-1-yl)carbonyl)-2H-1,4-benzoxazin-3(4H)-one] | 102 | – |
| O=C1COc2cc(F)c(C(=O)N3CC(COc4ccc(-c5ccnc(F)c5)cc4F)C3)cc2N1 [Example 240, 7-fluoro-6-((3-((2-fluoro-4-(2-fluoropyridin-4-yl)phenoxy)methyl)azetidin-1-yl)carbonyl)-2H-1,4-benzoxazin-3(4H)-one] | 102 | – |
